Measured values published in patent publication US12162890B2 (Novartis AG, priority 2015, dated 2024).

molecular target: HEK293 cells with stable expression of the GRIN1 gene and tetracycline-inducible expression of the GRIN2B gene (NMDA receptor, NR2B) (Homo sapiens, UniProt Q13224); experiment: Fluo-8 Ca2+ flux assay: reversal of Ro 25-6981-mediated suppression of the Ca2+ response to co-agonist (glutamate/glycine); type: cell-based; conditions: reversal of the Ro 25-6981 suppression of the Ca2+ response to co-agonist (glutamate/glycine); also: test concentration or dose not given here
Sequence (Q13224 27-1484, other chains not shown): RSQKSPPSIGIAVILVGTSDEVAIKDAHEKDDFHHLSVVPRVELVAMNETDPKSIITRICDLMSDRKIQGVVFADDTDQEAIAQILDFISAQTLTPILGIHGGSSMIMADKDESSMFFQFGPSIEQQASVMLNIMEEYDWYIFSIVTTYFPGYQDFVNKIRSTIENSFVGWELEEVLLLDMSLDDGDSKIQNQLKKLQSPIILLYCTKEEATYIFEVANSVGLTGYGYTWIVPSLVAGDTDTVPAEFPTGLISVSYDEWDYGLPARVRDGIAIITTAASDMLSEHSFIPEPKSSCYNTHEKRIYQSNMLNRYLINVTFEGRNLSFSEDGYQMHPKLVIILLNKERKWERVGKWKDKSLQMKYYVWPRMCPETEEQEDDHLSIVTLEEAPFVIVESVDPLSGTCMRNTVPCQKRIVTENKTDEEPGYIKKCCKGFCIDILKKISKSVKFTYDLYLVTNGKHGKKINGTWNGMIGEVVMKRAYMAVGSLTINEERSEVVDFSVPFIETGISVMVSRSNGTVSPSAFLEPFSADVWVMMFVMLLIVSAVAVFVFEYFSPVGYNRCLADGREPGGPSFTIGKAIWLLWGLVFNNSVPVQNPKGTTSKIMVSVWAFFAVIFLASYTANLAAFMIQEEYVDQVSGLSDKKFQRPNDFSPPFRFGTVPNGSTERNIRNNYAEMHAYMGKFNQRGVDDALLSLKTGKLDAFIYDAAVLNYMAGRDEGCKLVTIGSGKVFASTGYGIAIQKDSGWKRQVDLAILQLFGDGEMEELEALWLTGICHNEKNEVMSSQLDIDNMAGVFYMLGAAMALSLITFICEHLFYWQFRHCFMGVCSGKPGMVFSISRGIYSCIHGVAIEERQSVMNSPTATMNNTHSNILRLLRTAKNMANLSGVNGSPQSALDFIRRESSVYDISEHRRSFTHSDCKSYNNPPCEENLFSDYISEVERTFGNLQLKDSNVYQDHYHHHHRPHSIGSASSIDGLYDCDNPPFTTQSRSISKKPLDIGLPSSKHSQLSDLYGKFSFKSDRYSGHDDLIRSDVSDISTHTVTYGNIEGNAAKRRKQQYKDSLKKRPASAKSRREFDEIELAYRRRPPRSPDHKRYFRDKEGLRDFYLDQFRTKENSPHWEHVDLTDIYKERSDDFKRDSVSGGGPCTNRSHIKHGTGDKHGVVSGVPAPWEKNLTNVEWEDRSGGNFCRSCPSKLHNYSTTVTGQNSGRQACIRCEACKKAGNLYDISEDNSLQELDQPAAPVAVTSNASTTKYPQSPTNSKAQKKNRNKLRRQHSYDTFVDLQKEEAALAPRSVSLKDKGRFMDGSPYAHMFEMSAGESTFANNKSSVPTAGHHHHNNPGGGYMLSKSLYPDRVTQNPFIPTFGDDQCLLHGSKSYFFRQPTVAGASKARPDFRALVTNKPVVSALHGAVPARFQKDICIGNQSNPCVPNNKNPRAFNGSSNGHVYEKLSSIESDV

Compared with `CC1(F)CN(C(=O)Cn2cnn3cnc(-c4ccc(F)c(Cl)c4)c3c2=O)C1` [Example 424, 5-(3-chloro-4-fluorophenyl)-3-(2-(3-fluoro-3-methylazetidin-1-yl)-2-oxoethyl)imidazo[5,1-f][1,2,4]triazin-4(3H)-one], `CC1(F)CN(C(=O)Cn2cnn3cnc(-c4ccc(Cl)c(Cl)c4)c3c2=O)C1` [Example 425, 5-(3,4-dichlorophenyl)-3-(2-(3-fluoro-3-methylazetidin-1-yl)-2-oxoethyl)imidazo[5,1-f][1,2,4]triazin-4(3H)-one] is higher in “Response Recovered (%)” value: 0.55% for the first, 27% for the second.

Compared with `Cc1nc(-c2ccc(F)c(Cl)c2)c2c(=O)n(CC(=O)N3CC(C)(F)C3)ccn12` [Example 426, 1-(3-chloro-4-fluorophenyl)-7-(2-(3-fluoro-3-methylazetidin-1-yl)-2-oxoethyl)-3-methylimidazo[1,5-a]pyrazin-8(7H)-one], `Cc1nc(-c2ccc(F)c(Cl)c2)c2c(=O)n(CC(=O)N3CC(F)(F)C3)ccn12` [Example 430, 1-(3-chloro-4-fluorophenyl)-7-(2-(3,3-dilfuoroazetidin-1-yl)-2-oxoethyl)-3-methylimidazo[1,5-a]pyrazin-8(7H)-one] is lower in “Response Recovered (%)” value: 30% for the first, 7.3% for the second.

Compared with `Cc1nc(-c2ccc(F)c(C(F)(F)F)c2)c2c(=O)n(CC(=O)N3CCC(F)C3)ccn12` (stereo not drawn) [Example 427, 1-(4-fluoro-3-(trifluoromethyl)phenyl)-7-(2-(3-fluoropyrrolidin-1-yl)-2-oxoethyl)-3-methylimidazo[1,5-a]pyrazin-8(7H)-one], `O=C(Cn1ccn2c(C3CC3)nc(-c3ccc(F)c(C(F)(F)F)c3)c2c1=O)N1CCC(F)C1` (stereo not drawn) [Example 434, 3-cyclopropyl-1-(4-fluoro-3-(trifluoromethyl)phenyl)-7-(2-(3-fluoropyrrolidin-1-yl)-2-oxoethyl)imidazo[1,5-a]pyrazin-8(7H)-one] is higher in “Response Recovered (%)” value: 19% for the first, 40% for the second.

Compared with `Cc1nc(-c2ccc(F)c(Cl)c2)c2c(=O)n(CC(=O)N3CCC(F)C3)ccn12` (stereo not drawn) [Example 428, 1-(3-chloro-4-fluorophenyl)-7-(2-(3-fluoropyrrolidin-1-yl)-2-oxoethyl)-3-methylimidazo[1,5-a]pyrazin-8(7H)-one], `Cc1nc(-c2ccc(Cl)c(Cl)c2)c2c(=O)n(CC(=O)N3CCC(F)C3)ccn12` (stereo not drawn) [Example 429, 1-(3,4-dichlorophenyl)-7-(2-(3-fluoropyrrolidin-1-yl)-2-oxoethyl)-3-methylimidazo[1,5-a]pyrazin-8(7H)-one] is lower in “Response Recovered (%)” value: 18% for the first, 11% for the second.

First: CCC1(F)CN(C(=O)Cn2ccn3c(C)nc(-c4ccc(F)c(Cl)c4)c3c2=O)C1 [Example 431, 1-(3-chloro-4-fluorophenyl)-7-(2-(3-ethyl-3-fluoroazetidin-1-yl)-2-oxoethyl)-3-methylimidazo[1,5-a]pyrazin-8(7H)-one]
Second: O=C(Cn1ccn2c(C3CC3)nc(-c3ccc(F)c(Cl)c3)c2c1=O)N1CC(F)(CF)C1 [Example 439, 1-(3-chloro-4-fluorophenyl)-3-cyclopropyl-7-(2-(3-fluoro-3-(fluoromethyl)azetidin-1-yl)-2-oxoethyl)imidazo[1,5-a]pyrazin-8(7H)-one]
The “Response Recovered (%)” value of the first is lower: −3.9% for the first, 120% for the second.

First: O=C(Cn1ccn2c(C3CC3)nc(-c3ccc(F)c(Cl)c3)c2c1=O)N1CCC(F)C1 (stereo not drawn) [Example 432, 1-(3-chloro-4-fluorophenyl)-3-cyclopropyl-7-(2-(3-fluoropyrrolidin-1-yl)-2-oxoethyl)imidazo[1,5-a]pyrazin-8(7H)-one]
Second: O=C(Cn1ccn2c(C3CC3)nc(-c3ccc(Cl)c(Cl)c3)c2c1=O)N1CCC(F)C1 (stereo not drawn) [Example 433, 3-cyclopropyl-1-(3,4-dichlorophenyl)-7-(2-(3-fluoropyrrolidin-1-yl)-2-oxoethyl)imidazo[1,5-a]pyrazin-8(7H)-one]
The “Response Recovered (%)” value of the first is lower: 19% for the first, 68% for the second.

First: CC1(F)CN(C(=O)Cn2ccn3c(C4CC4)nc(-c4ccc(Cl)c(Cl)c4)c3c2=O)C1 [Example 435, 3-cyclopropyl-1-(3,4-dichlorophenyl)-7-(2-(3-fluoro-3-methylazetidin-1-yl)-2-oxoethyl)imidazo[1,5-a]pyrazin-8(7H)-one]
Second: CC1(F)CN(C(=O)Cn2ccn3c(C4CC4)nc(-c4ccc(F)c(Cl)c4)c3c2=O)C1 [Example 436, 1-(3-chloro-4-fluorophenyl)-3-cyclopropyl-7-(2-(3-fluoro-3-methylazetidin-1-yl)-2-oxoethyl)imidazo[1,5-a]pyrazin-8(7H)-one]
The “Response Recovered (%)” value of the first is higher: 120% for the first, 100% for the second.

Compared with `CC1(F)CN(C(=O)Cn2ccn3c(C4CC4)nc(-c4cnc(Cl)c(Cl)c4)c3c2=O)C1` [Example 437, 3-cyclopropyl-1-(5,6-dichloropyridin-3-yl)-7-(2-(3-fluoro-3-methylazetidin-1-yl)-2-oxoethyl)imidazo[1,5-a]pyrazin-8(7H)-one], `CC1(F)CN(C(=O)Cn2ccn3c(C4CC4)nc(-c4cnc(F)c(Cl)c4)c3c2=O)C1` [Example 441, 1-(5-chloro-6-fluoropyridin-3-yl)-3-cyclopropyl-7-(2-(3-fluoro-3-methylazetidin-1-yl)-2-oxoethyl)imidazo[1,5-a]pyrazin-8(7H)-one] is lower in “Response Recovered (%)” value: 65% for the first, 46% for the second.

First: CC1(F)CN(C(=O)Cn2ccn3c(C4CC4)nc(-c4ccc(F)c(C(F)(F)F)c4)c3c2=O)C1 [Example 438, 3-cyclopropyl-1-(4-fluoro-3-(trifluoromethyl)phenyl)-7-(2-(3-fluoro-3-methylazetidin-1-yl)-2-oxoethyl)imidazo[1,5-a]pyrazin-8(7H)-one]
Second: Cc1cc(-c2nc(C3CC3)n3ccn(CC(=O)N4CC(C)(F)C4)c(=O)c23)ccc1F [Example 442, 3-cyclopropyl-7-(2-(3-fluoro-3-methylazetidin-1-yl)-2-oxoethyl)-1-(4-fluoro-3-methylphenyl)imidazo[1,5-a]pyrazin-8(7H)-one]
The “Response Recovered (%)” value of the first is higher: 79% for the first, 65% for the second.

Compared with `O=C(Cn1ccn2c(C3CC3)nc(-c3ccc(Cl)c(Cl)c3)c2c1=O)N1CC(F)(CF)C1` [Example 440, 3-cyclopropyl-1-(3,4-dichlorophenyl)-7-(2-(3-fluoro-3-(fluoromethyl)azetidin-1-yl)-2-oxoethyl)imidazo[1,5-a]pyrazin-8(7H)-one], `Cc1cc(-c2nc(C3CC3)n3ccn(CC(=O)N4CC(C)(F)C4)c(=O)c23)ccc1Cl` [Example 443, 1-(4-chloro-3-methylphenyl)-3-cyclopropyl-7-(2-(3-fluoro-3-methylazetidin-1-yl)-2-oxoethyl)imidazo[1,5-a]pyrazin-8(7H)-one] is higher in “Response Recovered (%)” value: 110% for the first, 120% for the second.

First: CC1(F)CN(C(=O)Cn2ccn3cnc(-c4ccc(F)c(Cl)c4)c3c2=O)C1 [Example 445, 1-(3-chloro-4-fluorophenyl)-7-(2-(3-fluoro-3-methylazetidin-1-yl)-2-oxoethyl)imidazo[1,5-a]pyrazin-8(7H)-one]
Second: CC1(F)CN(C(=O)Cn2ccn3cnc(-c4ccc(Cl)c(Cl)c4)c3c2=O)C1 [Example 447, 1-(3,4-dichlorophenyl)-7-(2-(3-fluoro-3-methylazetidin-1-yl)-2-oxoethyl)imidazo[1,5-a]pyrazin-8(7H)-one]
The “Response Recovered (%)” value of the first is lower: 34% for the first, 58% for the second.

Compared with `CC1(F)CN(C(=O)Cn2ccn3cnc(-c4ccc(F)c(C(F)(F)F)c4)c3c2=O)C1` [Example 446, 1-(4-fluoro-3-(trifluoromethyl)phenyl)-7-(2-(3-fluoro-3-methylazetidin-1-yl)-2-oxoethyl)imidazo[1,5-a]pyrazin-8(7H)-one], `O=C(Cn1ccc2ncc(-c3ccc(F)c(C(F)(F)F)c3)n2c1=O)N1CCC(F)C1` (stereo not drawn) [Example 448, 3-(4-fluoro-3-(trifluoromethyl)phenyl)-6-(2-(3-fluoropyrrolidin-1-yl)-2-oxoethyl)imidazo[1,2-c]pyrimidin-5(6H)-one] is lower in “Response Recovered (%)” value: 68% for the first, 14% for the second.

Compared with `O=C(Cn1ccc2ncc(-c3cnc(Cl)c(C(F)(F)F)c3)n2c1=O)N1CCC(F)C1` (stereo not drawn) [Example 449, 3-(6-chloro-5-(trifluoromethyl)pyridin-3-yl)-6-(2-(3-fluoropyrrolidin-1-yl)-2-oxoethyl)imidazo[1,2-c]pyrimidin-5(6H)-one], `O=C(Cn1ccc2ncc(-c3ccc(Cl)c(Cl)c3)n2c1=O)N1CCC(F)C1` (stereo not drawn) [Example 450, 3-(3,4-dichlorophenyl)-6-(2-(3-fluoropyrrolidin-1-yl)-2-oxoethyl)imidazo[1,2-c]pyrimidin-5(6H)-one] is higher in “Response Recovered (%)” value: 5.2% for the first, 33% for the second.

Compared with `O=C(Cn1ccc2ncc(-c3ccc(F)c(Cl)c3)n2c1=O)N1CCC(F)C1` (stereo not drawn) [Example 451, 3-(3-chloro-4-fluorophenyl)-6-(2-(3-fluoropyrrolidin-1-yl)-2-oxoethyl)imidazo[1,2-c]pyrimidin-5(6H)-one], `Cc1cn(CC(=O)N2CCC(F)C2)c(=O)n2c(-c3ccc(F)c(Cl)c3)cnc12` (stereo not drawn) [Example 452, 3-(3-chloro-4-fluorophenyl)-6-(2-(3-fluoropyrrolidin-1-yl)-2-oxoethyl)-8 methylimidazo[1,2-c]pyrimidin-5(6H)-one] is lower in “Response Recovered (%)” value: 23% for the first, 7.5% for the second.

Compared with `Cc1cn(CC(=O)N2CCC(F)C2)c(=O)n2c(-c3ccc(Cl)c(Cl)c3)cnc12` (stereo not drawn) [Example 453, 3-(3,4-dichlorophenyl)-6-(2-(3-fluoropyrrolidin-1-yl)-2-oxoethyl)-8-methylimidazo[1,2-c]pyrimidin-5(6H)-one], `Cc1cn(CC(=O)N2CCC(F)C2)c(=O)n2c(-c3ccc(F)c(C(F)(F)F)c3)cnc12` (stereo not drawn) [Example 454, 3-(4-fluoro-3-(trifluoromethyl)phenyl)-6-(2-(3-fluoropyrrolidin-1-yl)-2-oxoethyl)-8-methylimidazo[1,2-c]pyrimidin-5(6H)-one] is higher in “Response Recovered (%)” value: 26% for the first, 35% for the second.
